Source: patent US6355665B1, “1H-4(5)-substituted imidazole derivatives, their preparation and their use as histamine H3 receptor ligands” (James Black Foundation Limited, priority 1997, dated 2002)

What was measured:
Histamine H3 receptor [1] = biological target: T1, Histamine H3 receptor (Cavia porcellus, UniProt Q9JI35); assay: ileal longitudinal muscle, myenteric plexus functional assay (rightward shift of R-(α)-methylhistamine E/[A] curves, Schild); type: cell-based; parameters: the longitudinal muscle layer and adhering myenteric plexus was teased away; from tissue; host or cells: guinea pig ileal longitudinal muscle with myenteric plexus (organ bath); settings: guinea pig ileum longitudinal muscle myenteric plexus, electrically stimulated; antagonism of R-(α)-methylhistamine; typical variance ±0.15 log units; read-out: pKB (functional assay) - ileum (converted)
T1 sequence (Q9JI35 whole entry): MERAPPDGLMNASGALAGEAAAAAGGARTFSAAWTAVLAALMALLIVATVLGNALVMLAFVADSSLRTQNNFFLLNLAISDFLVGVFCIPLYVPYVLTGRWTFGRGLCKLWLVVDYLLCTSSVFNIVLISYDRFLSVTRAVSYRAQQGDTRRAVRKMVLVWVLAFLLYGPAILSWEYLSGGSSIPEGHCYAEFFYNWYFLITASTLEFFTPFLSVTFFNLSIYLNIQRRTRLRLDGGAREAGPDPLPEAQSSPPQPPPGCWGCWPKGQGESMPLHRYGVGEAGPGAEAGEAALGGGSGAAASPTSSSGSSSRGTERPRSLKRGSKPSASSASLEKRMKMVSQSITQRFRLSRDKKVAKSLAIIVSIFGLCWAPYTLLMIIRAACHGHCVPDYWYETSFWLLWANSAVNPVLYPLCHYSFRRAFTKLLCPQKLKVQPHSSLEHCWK
Protocol: The biological activity of the compounds of the examples was measured using the ileal longitudinal muscle, myenteric plexus assay described by Paton and Aboo Zar (J. Physiol. 1968, 194, 13-33). Male Dunkin-Hartley guinea pigs (250-300 g) were employed. Briefly, a 50 cm portion of ileum proximal to the caecum was removed, after discarding the terminal 20 cm. Ileal segments (3 cm) were cleaned by passing Krebs-Henseleit buffer containing 3 μM mepyramine gently through the ileum using a Pasteur pipette (size: 13.8 cm length, 0.65 cm diameter). To avoid unnecessary damage to the tissue, Krebs-Henseleit buffer was passed through the ileal segment, while it was lying horizontally on a petri dish. Therefore, the ileum was not over-distended and the buffer flowed through with ease. Each segment was then passed over a Pasteur pipette and the longitudinal muscle layer and adhering myenteric plexus was teased away using moist cotton wool, by stroking tangentially away from the mesenteric attachment. The tissues were suspended in 20 ml organ baths containing Krebs-Henseleit buffer at 37±1° C. and gassed with 95% CO2/5% O2. The tissues were ligated to two parallel stainless steel wires, situated between two platinum electrodes (0.76 cm length, 0.06 cm diameter). All measurements were recorded isometrically (Grass FTO3 transducer). Following an initial loading tension of 1 g, the tissues were stimulated with electrical pulses at a frequency of 0.1 Hz and a pulse duration of 0.5 msec, as described by Kosterlitz & Watt (Br. J. Pharmacol. 1968, 266-276). Initially, the tissues were stimulated at supramaximal (1.3 fold times maximal) voltage for a period of 30 min and then the tissues were washed and re-stimulated. A “sighter dose” of the selective histamine H3-receptor agonist, R-(α)-methylhistamine (0.3 μM) (Arrang et al. Nature, 1987, 117-123), was administered. Upon generation of response, the “sighter dose” was removed from the tissues by “washout” (6 washes over 60 min) and during this period the electrical stimulation was switched off. The tissues were then re-stimulated and allowed to stabilise prior to the addition of drug treatments, which were allocated on a randomised block basis to the organ baths. Following the incubation period, a single cumulative E/[A] curve was obtained. The experimental E/[A] curve data was expressed as the percentage inhibition of the peak height of electrically-stimulated contraction. Antagonist affinity values were calculated from the degree of rightward shift of the R-(α)-methylhistamine E/[A] curves using Schild's methods (Arunlakshana & Schild Br. J. Pharmacol. 1959, 48-58). Typical variance in this assay is ±0.15 log units.

Histamine H3 receptor [2] = biological target: T1, Histamine H3 receptor; assay: Histamine H3 radioligand binding assay, guinea pig cortex ([3H]-R-α-methylhistamine); parameters: The cortex was dissected, weighed and homogenised in ice-cold 20 mM Hepes-NaOH buffer; from tissue; host or cells: guinea pig cerebral cortex membranes; settings: guinea pig cortex membranes; [3H]-R-α-methylhistamine 0.1 nM; typical variance ±0.12 log units; read-out: pKI (binding assay) - cortex (converted)
Protocol: Histamine H3 Radioligand Binding Assay—Guinea Pig Cortex
Male Dunkin Hartley guinea pigs (200-300 g) were used. The whole brain was removed and immediately placed in ice-cold 20 mM Hepes-NaOH buffer (pH7.4 at 21±3° C.). The cortex was dissected, weighed and homogenised in ice-cold 20 mM Hepes-NaOH buffer (pH7.4 at 21±3° C.) (50 ml/guinea-pig cortex) using a polytron (Kinematica AG; PT-DA 3020/2TS, 3×3 s). The homogenate was centrifuged at 100×g for 5 min and the supernatants pooled and stored at 4° C. The pellets were rehomogenised in fresh ice-cold buffer (80 ml) and recentrifuged (100×g for 5 min). The supernatants were pooled and pellets rehomogenised and recentrifuged (100×g for 5 min). All supernatants were pooled and centrifuged at 39,800×g for 12 min at 4° C. The final pellet was resuspended in 20 mM Hepes-NaOH buffer (pH7.4 at 21±3° C.) to a tissue concentration of 7.5 mg.ml^−1, using a teflon-in-glass homogeniser.
Incubation Conditions and Data Analysis
These were essentially identical to those used for the guinea pig ileum myenteric plexus assay described above, except that the final assay concentration of [^3H]-R-α-methylhistamine was 0.1 nM. Typical variance in this assay is ±0.12 log units.

SMILES	Kb (Histamine H3 receptor [1]) [nM]	Ki (Histamine H3 receptor [2]) [nM]
O=S(=O)(CCCCc1c[nH]cn1)CCc1ccc(Cl)cc1 [Example 24, [4-(1H-Imidazol-4-yl)butyl] 4-chlorophenethyl sulfone]	10.7	5.62
O=S(=O)(CCCCCc1c[nH]cn1)NCCc1ccc(Cl)cc1 [Example 11, N-(4-Chlorophenethyl)-5-(1H-imidazol-4-yl)-1-pentanesulfonamide]	29.5	7.24
O=S(=O)(CC(O)CCCc1c[nH]cn1)NCc1ccccc1Cl (stereo not shown) [Example 20, N-(2-Chlorobenzyl)-2-hydroxy-5-(1H-imidazol-4-yl)-1-pentanesulfonamide]	331	126
O=S(=O)(CCCCCc1c[nH]cn1)NCc1ccccc1Cl [Example 19, N-(2-Chlorobenzyl)-5-(1H-imidazol-4-yl)-1-pentanesulfonamide]	245	19.5
O=[N+]([O-])CC(CCCc1c[nH]cn1)CS(=O)(=O)NCc1ccc(Cl)cc1 (stereo not shown) [Example 37, N-(4-Chlorobenzyl)-2-nitromethyl-5-(1H-imidazol-4-yl)-1-pentanesulfonamide]	20.4	6.61
O=S(=O)(CCCCCc1c[nH]cn1)NCc1cccc(Cl)c1 [Example 21, N-(3-Chlorobenzyl)-5-(1H-imidazol-4-yl)-1-pentanesulfonamide]	58.9	12
CNC(CCCc1c[nH]cn1)CS(=O)(=O)NCc1ccc(Cl)cc1 (stereo not shown) [Example 39, N-(4-Chlorobenzyl)-2-methylamino-5-(1H-imidazol-4-yl)-1-pentanesulfonamide]	24.5	2.95
O=S(=O)(CC(O)CCCc1c[nH]cn1)NCc1ccccc1 (stereo not shown) [Example 14, N-Benzyl-2-hydroxy-5-(1H-imidazol-4-yl)-1-pentanesulfonamide]	724	81.3
O=S(=O)(CCCCCc1c[nH]cn1)N(Cc1ccccc1)Cc1ccc(Cl)cc1 [Example 36, N-Benzyl-N-(4-chlorobenzyl)-5-(1H-imidazol-4-yl)-1-pentanesulfonamide]	1550	200
O=S(=O)(CC(O)CCCc1c[nH]cn1)NCc1ccc(Br)cc1 (stereo not shown) [Example 16, N-(4-Bromobenzyl)-2-hydroxy-5-(1H-imidazol-4-yl)-1-pentanesulfonamide]	18.2	1.12
O=S(=O)(CCCCCc1c[nH]cn1)NCc1ccccc1 [Example 13, N-Benzyl-5-(1H-imidazol-4-yl)-1-pentanesulfonamide]	58.9	8.91
O=S(=O)(C/C=C/CCc1c[nH]cn1)NCc1ccc(Cl)cc1 [Example 33, (E)-N-(4-Chlorobenzyl)-5-(1H-imidazol-4-yl)-1-pent-2-enesulfonamide]	4.68	0.851
O=S(=O)(CCCCCc1c[nH]cn1)NCc1ccc(Br)cc1 [Example 15, N-(4-Bromobenzyl)-5-(1H-imidazol-4-yl)-1-pentanesulfonamide]	3.39	0.891
O=S(=O)(CCCCCc1c[nH]cn1)NCc1ccc(F)cc1 [Example 28, N-(4-Fluorobenzyl)-5-(1H-imidazol-4-yl)-1-pentanesulfonamide]	19.1	7.08
NCCCN(Cc1ccc(Cl)cc1)S(=O)(=O)CCCCCc1c[nH]cn1 [Example 35, N-(4-Chlorobenzyl)-N-(3-aminopropyl)-5-(1H-imidazol-4-yl)-1-pentanesulfonamide]	151	18.2
O=S(=O)(CCCCc1c[nH]cn1)Cc1ccc(Cl)cc1 [Example 25, [4-(1H-Imidazol-4-yl)butyl]-4-chlorobenzyl sulfone]	30.2	18.6
O=S(=O)(CC(O)CCc1c[nH]cn1)NCCc1ccc(Cl)cc1 (stereo not shown) [Example 10, N-(4Chlorophenethyl)-2-hydroxy-4-(1H-imidazol-4-yl)-1-butanesulfonamide]	–	741
NC(CCCc1c[nH]cn1)CS(=O)(=O)NCc1ccc(Cl)cc1 (stereo not shown) [Example 40, 2-Amino-N-(4-chlorobenzyl)-5-(1H-imidazol-4-yl)-1-pentanesulfonamide]	–	22400
